Source: PubChem BioAssay (NCI)
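Results reflect a 48-hour exposure of cells in 96-well plates to compound at five concentrations. TGI: concentration producing complete growth inhibition.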

Legend:
Assay in all cases: inhibition of tumour cell growth, NCI panel, 48 h
[1] = system: DMS 114 small cell lung
[2] = system: SNB-19 CNS
[3] = system: EKVX NSCLC
[4] = system: UACC-62 melanoma
[5] = system: RPMI-8226 leukemia
[6] = system: LXFL 529 NSCLC
[7] = system: TK-10 renal
[8] = system: HT29 colon
[9] = system: SF-268 CNS
[10] = system: SW-620 colon

Row | SMILES | TGI [1] | TGI [2] | TGI [3] | TGI [4] | TGI [5] | TGI [6] | TGI [7] | TGI [8] | TGI [9] | TGI [10]
1 | N#CC(C(=O)C(=O)Nc1ccc(Cl)cc1)c1ccccc1 (stereo not given) | > 100 µM | > 100 µM | > 100 µM | 77.9 µM | > 100 µM | > 100 µM | > 100 µM | > 100 µM | > 100 µM | > 100 µM
2 | CC(C)N(CCn1c2c3ccccc3ccc2c2oc(=O)c3ccccc3c21)C(C)C | > 100 µM | > 100 µM | > 100 µM | > 100 µM | > 100 µM | > 100 µM | > 100 µM | > 100 µM | > 100 µM | > 100 µM
3 | Cc1nc([N+](=O)[O-])cn1CC(=N)N | > 100 µM | > 100 µM | > 100 µM | > 100 µM | > 100 µM | > 100 µM | > 100 µM | > 100 µM | > 100 µM | > 100 µM
4 | Cc1ccc(NC(=O)CSc2nnc(-c3ccc(N=Cc4ccc(Cl)cc4)cc3)o2)cc1 | > 100 µM | > 100 µM | > 100 µM | > 100 µM | > 100 µM | > 100 µM | > 100 µM | > 100 µM | > 100 µM | > 100 µM
5 | Cc1ccc(C)c(N=C2NC(=O)C(CC(=O)Nc3ccc(Cl)cc3Cl)S2)c1 (stereo not given) | > 100 µM | > 100 µM | > 100 µM | > 100 µM | > 100 µM | > 100 µM | > 100 µM | > 100 µM | > 100 µM | > 100 µM
6 | CC(C)C(=O)NS(=O)(=O)c1ccccc1 | > 100 µM | > 100 µM | > 100 µM | > 100 µM | > 100 µM | > 100 µM | > 100 µM | > 100 µM | > 100 µM | > 100 µM
7 | CC(=O)O[C@H]1CCC2[C@@H]3CCC4Nc5[nH]ncc5C[C@]4(C)C3CC[C@@]21C (stereo not given in full) | > 100 µM | > 100 µM | > 100 µM | 60.3 µM | > 100 µM | > 100 µM | > 100 µM | > 100 µM | > 100 µM | > 100 µM
